Results on 21 compounds are retold here after paper PMC11125646 (Viruses, 2024).

Read-outs that look alike come from different tables or passages of the source.

The nature of one data set: in vitro. The note with it: African green monkey (Cercopithecus aethiops).
The subject of a further data set is hCoV OC43. Put plainly: Inhibition of OC43-induced cytopathogenicity in Vero-76 cells (MTT). It is filed as cell-based. For orientation: Protection from cytopathic effect is a common read-out in antiviral testing.
Data set [1] deals with hCoV-229E. The experiment in a line: microbe, parasite or virus in culture. The class given is cell-based. As to conditions: for EC50: Human coronavirus 229E.
The next data set deals with SARS-CoV-2. It is filed as cell-based.
Data set [2] can be described thus: Cytotoxicity in Vero-76 cells (MTT). As to conditions: African green monkey (Cercopithecus aethiops); for CC50: Vero-76 cells.
For data set [3], the system named is OC43. Put plainly: Cell pretreatment assay (OC43, Vero-76). It is filed as cell-based, hCoV-OC43. The note with it: 2 h pre-treatment, 50, 20, 4, 0.8 μM, viability after six days.
In another data set the test system is EV-A71. The experiment in a line: Inhibition of EVA71-induced cytopathogenicity (MTT). The class given is cell-based. As to conditions: Enterovirus A, 50% protection from EVA71-induced cytopathogenicity.
Data set [4] in a line: Cytotoxicity in SK-MES-1 cells (MTT). The class given is cell-based. As to conditions: human.
The subject of data set [5] is OC43. The experiment in a line: Adsorption assay (OC43, Vero-76). As to conditions: virus and cells incubated at 4 °C in presence of compound.
The subject of data set [6] is OC43. The experiment in a line: OC43 yield reduction assay in Vero-76 cells. The class given is cell-based, hCoV-OC43.
The nature of data set [7]: Cytotoxicity in Caco-2 cells (MTT). It is filed as cell-based, human. The note with it: human, MTT; for CC50 at 24 h: Caco-2, 24 h; for CC50 at 72 h: Caco-2, 72 h.
Another data set has as its system Caco-2 cells. The experiment in a line: Cytotoxicity in Caco-2 cells (MTT). It is filed as cell-based, human.
Data set [8] relates to OC43. Put plainly: OC43 virucidal activity assay. The note with it: 0 °C and 37 °C, before cell infection. The class given is cell-based, hCoV-OC43.
In data set [9] the test system is hCoV-229E. Also noted: method as in earlier work. As to conditions: Huh-7 cells; ref [41]; read-out: EC50, replication of HCoV-229E in Huh-7 cells; cited from earlier work.
In a further data set the test system is Mpro of SARS-CoV-2. More on the design: method as in earlier work. The note with it: ref [41]; cited from earlier work.
Where [10] appears, read: Betacoronavirus 1, 50% protection of Vero-76 cells from OC43-induced cytopathogenicity, MTT, read-out: OC43 EC50.
The mark [11] stands for this setting: Betacoronavirus 1, OC43, Vero 76, cinnamic acids, read-out: OC43 EC50 (Table S1).
[12] abbreviates: 50% protection of SK-MES-1 cells from 229E-induced cytopathogenicity, MTT, read-out: 229E EC50.
Setting [13] is: SK-MES-1, cinnamic acids, read-out: 229E EC50 (Table S1).

As a reminder, the EC50 is the concentration needed to bring the measured effect to its halfway point. `O=C(/C=C/c1ccccc1O)Oc1cc(O)c2c(=O)c(O)c(-c3ccc(O)c(O)c3)oc2c1` [Compound 4] returned a CC50 at 120 h in the data set “in vitro” of 78 µM. For the same compound, in the data set on hCoV OC43 (setting [10]), the EC50 is more than 78 µM.
`COc1cc(/C=C/C(=O)O)ccc1O` [ferulic acid]: the “activity against 229E” value with hCoV-229E [1] is reported as “No inhibitory effect”. Further, the “activity against OC43 (words)” value in the data set with hCoV OC43 is listed as “No inhibitory effect”. Also, the “activity against SARS-CoV-2 (words)” value with SARS-CoV-2 is listed as “No inhibitory effect”.
For the compound `O=C(O)/C=C/c1ccc(O)cc1` [Compound A3], the 50% effective concentration (EC50) with hCoV OC43 (setting [11]) is more than 100 µM. In data set [2], the CC50 is more than 100 µM.
As for `CCN(CCO)CCCC(C)Nc1ccnc2cc(Cl)ccc12` (stereo not drawn) [Hydroxychloroquine, reference compound], in the data set “in vitro”, the CC50 at 120 h worked out at 60 µM. Moreover, the EC50 in the data set on hCoV OC43 (setting [10]) amounted to 1.9 ± 0.8 µM.
On to `COc1cc(/C=C/C(=O)Oc2cc(O)c3c(=O)c(O)c(-c4ccc(O)c(O)c4)oc3c2)cc(OC)c1O` [Compound 7], for which the CC50 at 24 h (in “in vitro”; in [7]) was more than 100 µM in each case. For the same compound, the results for the CC50 at 72 h (in the data set “in vitro”; in data set [7]) were more than 100 µM and 70 µM, respectively. The compound further had a CC50 at 120 h in the data set “in vitro” of 100 µM. For the same compound, in the data set with OC43 [3], the “protection of pre-treated Vero-76 monolayers from OC43 infection” value is reported as “failed to inhibit OC43 infection”. The values for the EC50 with hCoV-229E [1] (setting [12]), in the data set with EV-A71 and with hCoV OC43 (setting [10]) were more than 100 µM, more than 100 µM and 6.5 ± 0.7 µM, respectively. Further, the CC50 at 48 h in [4] was more than 100 µM. In the data set with OC43 [5], the “block of OC43 viral binding (adsorption)” value is “efficiently able to block OC43 viral binding”. For the same compound, the “reduction in the OC43 titer” value with OC43 [6] (4 µM, Vero-76, m.o.i. 0.1) is 2 logs. For the same compound, the “reduction in the viral titer” value in the data set with OC43 [6] (50, 20, 4 and 0.8 µM, Vero-76) is given as “significant dose-dependent reduction”. In addition, the selectivity index in the data set with hCoV OC43 was 15. Besides, the “cytotoxicity against Caco-2 cells” value is listed as “No relevant cytotoxicity” in the data set on Caco-2 cells (24 h) and “a slight increase” in the data set on Caco-2 cells (72 h). The “virus titers of treated vs untreated samples (virucidal activity)” value in the data set on OC43 [8] was “did not significantly differ”. In addition, in the data set with SARS-CoV-2, the “activity against SARS-CoV-2 (words)” value is given as “showed activity”.
Turning to `COc1ccc(/C=C/C(=O)Oc2cc(O)c3c(=O)c(O)c(-c4ccc(O)c(O)c4)oc3c2)cc1OC` [Compound 1], the CC50 at 120 h in “in vitro” came out at 54.7 µM. Besides, the “activity against OC43 (words)” value in the data set on hCoV OC43 is “no activity”. Besides, in the data set with hCoV OC43 (setting [10]), the EC50 is more than 54.7 µM. In addition, the “activity against SARS-CoV-2 (words)” value with SARS-CoV-2 was “no activity”.
Take Dextran sulphate [reference compound]: in the data set with OC43 [3], the “protection of pre-treated Vero-76 monolayers from OC43 infection” value was “failed to inhibit OC43 infection”.
Turning to `COc1ccc(/C=C/C(=O)O)cc1OC` [Compound A1], in the data set “in vitro”, the CC50 is more than 100 µM. The EC50 in the data set with hCoV OC43 (setting [11]) was more than 100 µM.
Consider `O=C(/C=C/c1ccc2c(c1)OCO2)Oc1cc(O)c2c(=O)c(O)c(-c3ccc(O)c(O)c3)oc2c1` [Compound 6], for which the CC50 at 120 h in the data set “in vitro” came out at 30 µM. The EC50 in the data set on hCoV-229E [1] (setting [12]) is more than 33 µM; in the data set on hCoV OC43 (setting [10]), 2.4 ± 0.56 µM. For the same compound, the CC50 at 48 h in data set [4] was 33 µM.
For `COc1cc(/C=C/C(=O)O)cc(OC)c1O` [Compound A7, sinapic acid], the EC50 is more than 100 µM in the data set with hCoV-229E [1] (setting [13]) and more than 44 µM in the data set with hCoV OC43 (setting [11]). The CC50 in data set [4] (cinnamic acids, read-out: SK-MES-1 CC50 (Table S1)) is more than 100 µM; in [2], 44 µM. Further, the “activity against OC43 (words)” value in the data set with hCoV OC43 is listed as “no anti-beta coronavirus activity”. Moreover, in the data set on SARS-CoV-2, the “activity against SARS-CoV-2 (words)” value is “no anti-beta coronavirus activity”.
The compound `COc1cc(/C=C/C(=O)Oc2cc(O)c3c(=O)c(O)c(-c4ccc(O)c(O)c4)oc3c2)ccc1O` [Compound 2] returned a CC50 at 120 h in “in vitro” of 11.4 µM. The EC50 in the data set with hCoV OC43 (setting [10]) was more than 11.4 µM.
A word on the IC50: it is the midpoint of a concentration-inhibition curve. Turning to `O=c1c(O)c(-c2ccc(O)c(O)c2)oc2cc(O)cc(O)c12` [Quercetin, reference compound], the EC50 with hCoV-229E [9] was 4.88 µM; in the data set on hCoV-229E [1] (setting [12]) it was 51 µM; in the data set on EV-A71 it was more than 100 µM; in the data set on hCoV OC43 (setting [10]) it was more than 20 µM. Moreover, in the data set on Vero-76 cells, the “cytotoxicity against Vero-76 cells” value is “No cytotoxicity was detected”. Besides, the CC50 at 48 h in data set [4] (mock-infected SK-MES-1 cells, 48 h post-treatment, MTT, read-out: SK-MES-1 CC50) was more than 100 µM. Further, the IC50 in the data set on Mpro of SARS-CoV-2 is 6.79 µM. Further, the results for the “activity against OC43 (words)” value in the data set with hCoV OC43 and in the data set on hCoV OC43 (listed as quercetin) were “no activity” and “no anti-beta coronavirus activity”, respectively. In addition, the CC50 at 24 h is 88.7 µM in [7] and more than 100 µM in data set [2]. Moreover, the CC50 at 72 h in data set [7] stood at 61 µM; in data set [2], 100 µM. This compound showed a CC50 at 120 h in data set [2] of 20 µM. The “activity against SARS-CoV-2 (words)” value in the data set with SARS-CoV-2 is “no activity”; in the data set on SARS-CoV-2 (listed as quercetin), “no anti-beta coronavirus activity”.
Consider `O=C(O)/C=C/c1ccccc1O` [Compound A4], for which the CC50 in the data set “in vitro” was more than 100 µM. For the same compound, the EC50 with hCoV OC43 (setting [11]) was more than 100 µM.
On to `CCOC(=O)/C=C/[C@H](C[C@@H]1CCNC1=O)NC(=O)[C@@H](CC(=O)[C@@H](NC(=O)c1cc(C)on1)C(C)C)Cc1ccc(F)cc1` [Rupintrivir, reference compound], for which the CC50 in the data set “in vitro” is more than 100 µM. This compound also displayed an EC50 in the data set with EV-A71 of 0.07 µM.
Consider `O=C(/C=C/c1ccc(O)cc1)Oc1cc(O)c2c(=O)c(O)c(-c3ccc(O)c(O)c3)oc2c1` [Compound 3], for which the CC50 at 120 h in “in vitro” was found to be 60 µM. For the same compound, the “activity against OC43 (words)” value with hCoV OC43 is listed as “no evidence of activity”. For the same compound, the 50% effective concentration (EC50) with hCoV OC43 (setting [10]) is more than 60 µM.
Regarding `COc1cc(/C=C/C(=O)O)ccc1O` [Compound A2], in the data set “in vitro”, the CC50 is more than 100 µM. The EC50 in the data set with hCoV OC43 (setting [11]) was more than 100 µM.
In the case of `CCC(CC)COC(=O)[C@H](C)N[P@](=O)(OC[C@H]1O[C@@](C#N)(c2ccc3c(N)ncnn23)[C@H](O)[C@@H]1O)Oc1ccccc1` [Remdesivir, reference compound], in the data set “in vitro”, the CC50 at 120 h was more than 100 µM. In addition, the EC50 with hCoV-229E [1] (setting [12]) amounted to 5 ± 1 µM. The compound further gave a CC50 at 48 h in data set [4] of more than 100 µM.
`O=C(/C=C/c1cccc(O)c1)Oc1cc(O)c2c(=O)c(O)c(-c3ccc(O)c(O)c3)oc2c1` [Compound 5]: in the data set “in vitro”, the CC50 at 120 h was determined as 75 µM. Besides, the EC50 with hCoV OC43 (setting [10]) was more than 75 µM.
In the case of `O=C(O)/C=C/c1ccc(O)c(O)c1` [Compound A8], the CC50 (in the data set “in vitro”; in data set [4]) was more than 100 µM throughout. Also, the EC50 in the data set on hCoV-229E [1] (setting [13]) and in the data set with hCoV OC43 (setting [11]) was more than 100 µM in each case.
For the compound `O=C(/C=C/c1ccc(O)c(O)c1)Oc1cc(O)c2c(=O)c(O)c(-c3ccc(O)c(O)c3)oc2c1` [Compound 8], in the data set “in vitro”, the CC50 at 120 h was found to be 70 µM. Besides, the EC50 in the data set with hCoV-229E [1] (setting [12]) was more than 100 µM; with hCoV OC43 (setting [10]), 15 µM. The same compound registered a CC50 at 48 h in data set [4] of more than 100 µM. Besides, the “activity against SARS-CoV-2 (words)” value with SARS-CoV-2 is recorded as “showed activity”.
In “in vitro”, `O=C(O)/C=C/c1cccc(O)c1` [Compound A5] showed a CC50 of more than 100 µM. The half-maximal effective concentration (EC50) in the data set on hCoV OC43 (setting [11]) is more than 100 µM.
